Experimental data as given in paper PMC3272775 (Journal of Medicinal Chemistry, 2012).
Entries after “also recorded” stand apart in the source; their conditions may differ. Counter-ions that a name gives are not always drawn.

Legend:
α3β4*-nAChR = α3β4*-nAChR (Homo sapiens, UniProt P30926+P32297); test: 86Rb+ efflux assay in SH-SY5Y cells; format: cell-based; settings: efficacies similar to that of carbamylcholine
[1] = system: about 45 other CNS neurotransmitter receptors and transporters; test: Broad-range screening; format: binding; settings: 10 μM; about 45 receptors and transporters
CYP3A4 = CYP3A4 (Homo sapiens, UniProt P08684); test: Multiple CYP inhibition assay in human liver microsomes, CYP3A4; format: in vitro ADME
[2] = system: immobility in the mouse forced swim test; test: Mouse forced swim test; format: in vivo
CYP1A2 = target: T1, CYP1A2 (Homo sapiens, UniProt P05177); test: Multiple CYP inhibition assay in human liver microsomes, CYP1A2; format: in vitro ADME
T1 sequence (P05177 1-516): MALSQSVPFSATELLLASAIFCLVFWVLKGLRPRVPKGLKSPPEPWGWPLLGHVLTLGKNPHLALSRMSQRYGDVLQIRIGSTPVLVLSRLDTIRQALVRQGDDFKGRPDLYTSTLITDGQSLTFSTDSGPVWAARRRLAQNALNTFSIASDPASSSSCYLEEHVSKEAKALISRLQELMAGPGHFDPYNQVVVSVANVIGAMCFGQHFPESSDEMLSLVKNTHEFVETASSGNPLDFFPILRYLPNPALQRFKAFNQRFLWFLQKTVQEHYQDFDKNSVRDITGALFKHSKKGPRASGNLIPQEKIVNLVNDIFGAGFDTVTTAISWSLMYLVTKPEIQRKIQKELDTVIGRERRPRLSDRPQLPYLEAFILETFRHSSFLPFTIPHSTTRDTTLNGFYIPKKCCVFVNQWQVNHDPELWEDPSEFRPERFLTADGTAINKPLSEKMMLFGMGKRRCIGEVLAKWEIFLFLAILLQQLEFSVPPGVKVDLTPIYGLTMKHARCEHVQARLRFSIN

human α4β2-nAChR = human α4β2-nAChR (Homo sapiens, UniProt P17787+P43681); test: 86Rb+ efflux assay in SH-EP1-hα4β2 cells; format: cell-based; settings: efficacies similar to that of carbamylcholine
α1β1γδ-nAChR = α1β1γδ-nAChR (Homo sapiens, UniProt P02708+P07510+Q07001); test: 86Rb+ efflux assay in TE671/RD cells; format: cell-based
CYP2C9 = CYP2C9 (Homo sapiens, UniProt P11712); test: Multiple CYP inhibition assay in human liver microsomes, CYP2C9; format: in vitro ADME
CYP2B6 = target: T2, CYP2B6 (Homo sapiens, UniProt P20813); test: Multiple CYP inhibition assay in human liver microsomes, CYP2B6; format: in vitro ADME
T2 sequence (P20813 1-491): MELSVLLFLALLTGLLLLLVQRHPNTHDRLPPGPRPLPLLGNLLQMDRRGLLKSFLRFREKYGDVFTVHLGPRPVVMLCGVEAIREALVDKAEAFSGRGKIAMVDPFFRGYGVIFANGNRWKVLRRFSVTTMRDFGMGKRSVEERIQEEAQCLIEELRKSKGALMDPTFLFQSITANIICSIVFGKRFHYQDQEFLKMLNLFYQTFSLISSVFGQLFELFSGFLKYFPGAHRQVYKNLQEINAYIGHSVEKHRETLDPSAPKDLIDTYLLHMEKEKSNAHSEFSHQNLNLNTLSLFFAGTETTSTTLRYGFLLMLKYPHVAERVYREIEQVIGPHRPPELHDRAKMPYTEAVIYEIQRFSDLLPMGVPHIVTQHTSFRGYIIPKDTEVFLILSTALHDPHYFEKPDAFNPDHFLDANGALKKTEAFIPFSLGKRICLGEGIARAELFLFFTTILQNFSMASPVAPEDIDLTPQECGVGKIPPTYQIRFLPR

CYP2C19 = CYP2C19 (Homo sapiens, UniProt P33261); test: Multiple CYP inhibition assay in human liver microsomes, CYP2C19; format: in vitro ADME
CYP2D6 = CYP2D6 (Homo sapiens, UniProt P10635); test: Multiple CYP inhibition assay in human liver microsomes, CYP2D6; format: in vitro ADME
[3] = chronic and neuropathic pain; ref [45], [46]; cited from earlier work
[4] = system: α4β2-nAChR from rat cerebral cortical membranes; settings: ref [39], [40]; cited from earlier work

Sequence of α1β1γδ-nAChR (P02708 21-457): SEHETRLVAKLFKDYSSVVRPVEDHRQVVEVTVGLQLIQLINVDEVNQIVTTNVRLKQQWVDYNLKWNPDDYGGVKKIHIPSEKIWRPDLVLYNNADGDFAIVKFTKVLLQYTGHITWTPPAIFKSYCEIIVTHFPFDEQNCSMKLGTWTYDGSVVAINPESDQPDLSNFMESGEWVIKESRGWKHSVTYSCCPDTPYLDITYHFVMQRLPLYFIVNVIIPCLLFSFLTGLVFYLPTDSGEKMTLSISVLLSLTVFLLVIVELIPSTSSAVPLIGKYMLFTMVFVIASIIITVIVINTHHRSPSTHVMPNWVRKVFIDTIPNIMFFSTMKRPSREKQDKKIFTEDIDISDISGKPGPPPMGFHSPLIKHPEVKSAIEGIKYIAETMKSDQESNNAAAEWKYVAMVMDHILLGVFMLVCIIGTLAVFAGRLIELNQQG
Sequence of α1β1γδ-nAChR (P11230 24-501 partner): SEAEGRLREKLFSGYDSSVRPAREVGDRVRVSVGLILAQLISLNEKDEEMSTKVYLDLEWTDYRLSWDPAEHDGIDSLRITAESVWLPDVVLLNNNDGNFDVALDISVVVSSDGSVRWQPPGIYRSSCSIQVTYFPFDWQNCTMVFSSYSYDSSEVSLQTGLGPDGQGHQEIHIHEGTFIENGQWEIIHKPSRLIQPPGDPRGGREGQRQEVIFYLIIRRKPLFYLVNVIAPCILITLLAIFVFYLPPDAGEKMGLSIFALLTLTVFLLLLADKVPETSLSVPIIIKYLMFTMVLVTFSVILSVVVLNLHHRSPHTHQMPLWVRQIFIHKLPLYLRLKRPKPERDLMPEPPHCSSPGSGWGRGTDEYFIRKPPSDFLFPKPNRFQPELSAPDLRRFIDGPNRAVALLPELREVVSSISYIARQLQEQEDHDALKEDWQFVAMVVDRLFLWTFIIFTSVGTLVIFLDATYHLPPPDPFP
Sequence of α1β1γδ-nAChR (P07510 23-517): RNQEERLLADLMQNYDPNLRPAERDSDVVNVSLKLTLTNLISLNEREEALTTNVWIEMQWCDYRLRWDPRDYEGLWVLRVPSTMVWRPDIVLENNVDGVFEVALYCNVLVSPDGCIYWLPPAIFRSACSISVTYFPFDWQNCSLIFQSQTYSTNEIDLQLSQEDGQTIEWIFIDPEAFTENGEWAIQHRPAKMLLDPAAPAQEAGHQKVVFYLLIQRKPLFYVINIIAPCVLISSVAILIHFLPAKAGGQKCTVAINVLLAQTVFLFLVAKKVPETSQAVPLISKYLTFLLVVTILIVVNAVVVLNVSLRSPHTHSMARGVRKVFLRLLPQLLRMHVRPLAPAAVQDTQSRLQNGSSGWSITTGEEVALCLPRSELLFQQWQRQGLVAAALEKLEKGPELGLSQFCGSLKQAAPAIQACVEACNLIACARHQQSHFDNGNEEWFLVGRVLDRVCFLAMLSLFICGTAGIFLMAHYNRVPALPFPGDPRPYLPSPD
Sequence of α1β1γδ-nAChR (Q07001 22-517): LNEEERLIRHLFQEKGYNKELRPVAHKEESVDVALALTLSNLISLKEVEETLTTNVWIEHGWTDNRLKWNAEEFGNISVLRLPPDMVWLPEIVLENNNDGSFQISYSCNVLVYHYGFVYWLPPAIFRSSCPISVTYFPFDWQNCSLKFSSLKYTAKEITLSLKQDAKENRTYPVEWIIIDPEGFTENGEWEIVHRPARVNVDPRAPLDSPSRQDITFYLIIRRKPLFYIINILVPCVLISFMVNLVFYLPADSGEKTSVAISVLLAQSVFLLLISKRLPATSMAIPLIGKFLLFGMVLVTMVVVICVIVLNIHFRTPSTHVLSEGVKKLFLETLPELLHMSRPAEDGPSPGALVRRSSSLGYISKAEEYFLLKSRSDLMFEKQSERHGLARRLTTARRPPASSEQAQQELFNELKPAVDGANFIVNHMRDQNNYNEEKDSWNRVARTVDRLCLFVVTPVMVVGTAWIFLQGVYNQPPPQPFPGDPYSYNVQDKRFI
Sequence of CYP2C19 (P33261 whole entry): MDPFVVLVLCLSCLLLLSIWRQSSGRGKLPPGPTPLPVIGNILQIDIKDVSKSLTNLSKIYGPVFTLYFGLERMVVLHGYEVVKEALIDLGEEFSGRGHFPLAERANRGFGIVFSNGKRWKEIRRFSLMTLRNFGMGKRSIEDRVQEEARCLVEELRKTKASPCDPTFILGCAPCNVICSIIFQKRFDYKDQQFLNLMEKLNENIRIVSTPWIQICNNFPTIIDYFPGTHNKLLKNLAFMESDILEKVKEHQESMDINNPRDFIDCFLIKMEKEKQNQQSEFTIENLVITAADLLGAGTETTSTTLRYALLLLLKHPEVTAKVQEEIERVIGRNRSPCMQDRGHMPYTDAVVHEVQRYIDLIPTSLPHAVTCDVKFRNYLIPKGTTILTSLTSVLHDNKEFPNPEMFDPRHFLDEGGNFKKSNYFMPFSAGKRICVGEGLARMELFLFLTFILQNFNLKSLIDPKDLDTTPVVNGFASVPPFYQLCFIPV
Sequence of CYP2C9 (P11712 whole entry): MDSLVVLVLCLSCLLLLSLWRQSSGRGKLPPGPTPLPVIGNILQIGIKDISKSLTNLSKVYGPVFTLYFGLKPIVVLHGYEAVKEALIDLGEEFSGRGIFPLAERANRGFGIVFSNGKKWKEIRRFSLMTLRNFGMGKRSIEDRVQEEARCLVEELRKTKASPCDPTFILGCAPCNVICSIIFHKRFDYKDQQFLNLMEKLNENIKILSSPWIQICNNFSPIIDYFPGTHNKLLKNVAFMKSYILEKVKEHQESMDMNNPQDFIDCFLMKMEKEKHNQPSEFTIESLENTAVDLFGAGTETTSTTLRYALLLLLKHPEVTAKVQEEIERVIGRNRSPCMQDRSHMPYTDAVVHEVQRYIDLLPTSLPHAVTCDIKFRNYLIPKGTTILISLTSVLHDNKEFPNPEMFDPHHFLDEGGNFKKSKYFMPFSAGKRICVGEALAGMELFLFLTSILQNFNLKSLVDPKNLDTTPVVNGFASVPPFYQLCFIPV
Sequence of CYP2D6 (P10635 whole entry): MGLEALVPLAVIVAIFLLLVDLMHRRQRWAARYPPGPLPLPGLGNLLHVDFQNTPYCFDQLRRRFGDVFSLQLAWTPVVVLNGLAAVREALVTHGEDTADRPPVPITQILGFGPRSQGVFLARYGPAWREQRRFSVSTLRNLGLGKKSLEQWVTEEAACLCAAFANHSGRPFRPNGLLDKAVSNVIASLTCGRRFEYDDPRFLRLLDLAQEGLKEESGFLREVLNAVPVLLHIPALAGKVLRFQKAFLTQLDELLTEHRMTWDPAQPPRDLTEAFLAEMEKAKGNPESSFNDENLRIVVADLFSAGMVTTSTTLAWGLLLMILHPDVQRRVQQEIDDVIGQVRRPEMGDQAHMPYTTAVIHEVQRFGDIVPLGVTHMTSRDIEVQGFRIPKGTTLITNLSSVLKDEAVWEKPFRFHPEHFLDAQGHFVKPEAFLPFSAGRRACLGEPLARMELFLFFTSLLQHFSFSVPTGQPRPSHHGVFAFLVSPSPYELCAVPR
Sequence of α3β4*-nAChR (P32297 32-505): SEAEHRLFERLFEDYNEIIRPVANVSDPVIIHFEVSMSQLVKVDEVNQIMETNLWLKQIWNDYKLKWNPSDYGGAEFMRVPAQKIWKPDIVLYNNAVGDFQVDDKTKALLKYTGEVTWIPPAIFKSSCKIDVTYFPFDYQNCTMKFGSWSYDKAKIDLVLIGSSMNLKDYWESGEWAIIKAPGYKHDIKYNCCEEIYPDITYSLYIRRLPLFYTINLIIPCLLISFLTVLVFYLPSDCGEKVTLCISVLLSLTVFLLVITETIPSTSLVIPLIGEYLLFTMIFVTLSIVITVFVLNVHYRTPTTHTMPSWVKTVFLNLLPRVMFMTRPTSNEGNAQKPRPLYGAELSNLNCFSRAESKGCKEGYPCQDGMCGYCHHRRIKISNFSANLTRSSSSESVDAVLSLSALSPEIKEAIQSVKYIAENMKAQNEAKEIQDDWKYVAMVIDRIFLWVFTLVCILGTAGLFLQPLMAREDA
Sequence of α3β4*-nAChR (P30926 22-498): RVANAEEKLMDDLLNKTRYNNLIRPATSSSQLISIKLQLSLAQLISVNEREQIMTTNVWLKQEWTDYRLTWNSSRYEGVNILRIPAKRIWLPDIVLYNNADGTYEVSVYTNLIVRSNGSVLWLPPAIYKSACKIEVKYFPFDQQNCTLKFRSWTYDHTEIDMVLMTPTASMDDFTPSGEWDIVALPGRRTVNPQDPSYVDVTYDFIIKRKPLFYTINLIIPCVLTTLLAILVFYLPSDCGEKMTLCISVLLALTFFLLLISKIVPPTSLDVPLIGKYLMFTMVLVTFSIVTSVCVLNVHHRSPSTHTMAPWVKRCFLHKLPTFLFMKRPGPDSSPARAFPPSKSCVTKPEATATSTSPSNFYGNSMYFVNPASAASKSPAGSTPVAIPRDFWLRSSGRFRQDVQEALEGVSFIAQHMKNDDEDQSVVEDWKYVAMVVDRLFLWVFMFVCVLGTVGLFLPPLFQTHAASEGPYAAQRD
Sequence of CYP3A4 (P08684 whole entry): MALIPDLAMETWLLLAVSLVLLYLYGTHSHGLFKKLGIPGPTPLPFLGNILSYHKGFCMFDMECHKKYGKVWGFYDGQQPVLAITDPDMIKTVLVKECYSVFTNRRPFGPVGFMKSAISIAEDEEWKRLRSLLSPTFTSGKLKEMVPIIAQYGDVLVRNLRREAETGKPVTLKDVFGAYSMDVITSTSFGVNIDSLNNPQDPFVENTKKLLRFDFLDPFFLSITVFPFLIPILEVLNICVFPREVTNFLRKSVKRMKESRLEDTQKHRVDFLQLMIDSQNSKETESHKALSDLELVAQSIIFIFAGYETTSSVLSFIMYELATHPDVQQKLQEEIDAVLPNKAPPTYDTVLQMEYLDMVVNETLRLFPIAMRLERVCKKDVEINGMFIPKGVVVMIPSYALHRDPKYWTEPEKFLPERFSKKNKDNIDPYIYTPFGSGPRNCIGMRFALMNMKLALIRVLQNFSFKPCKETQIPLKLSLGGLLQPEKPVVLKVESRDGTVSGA

Compound: Cc1cc(OC[C@@H]2CCN2)on1 [Compound 43, 5-[(2(S)-Azetidinyl)methoxy]-3-methylisoxazole]
- Agonist activity at α3β4*-nAChRs (α3β4*-nAChR): full agonist activity
- Inhibition in the preliminary binding screen [1]: ≤ 50%
- CYP3A4 activity, % of the control (CYP3A4): ≥ 70%
- Immobility in the forced swim test ([2]; 1 mg/kg ip, 30 min before test, 6 min trial, vs vehicle): reduced immobility
- Immobility in the forced swim test ([2]; 1 mg/kg orally, 30 min before test, 6 min trial): inactive
- Immobility in the forced swim test ([2]; 5 mg/kg ip, 30 min before test, 6 min trial, vs vehicle): reduced immobility
- CYP1A2 activity, % of the control (CYP1A2): ≥ 70%
- Agonist activity at α4β2-nAChRs (human α4β2-nAChR): full agonist activity
- Activity at the α1β1γδ-nAChR (α1β1γδ-nAChR): little activity; also recorded: inactive
- CYP2C9 activity, % of the control (CYP2C9): ≥ 70%
- CYP2B6 activity, % of the control (CYP2B6): ≥ 70%
- CYP2C19 activity, % of the control (CYP2C19): ≥ 70%
- CYP2D6 activity, % of the control (CYP2D6): ≥ 70%

Compound: Clc1ccc(OC[C@H]2CCN2)cn1 [Compound 10]
- Potency relative to morphine [3]: 50 times

Compound: Cc1cc([C@H]2C[C@@H]3CC[C@H]2N3)on1 [Compound 7, epiboxidine]
- Fold less potent than compound 4 in the displacement of [3H]nicotine [4]: approximately 10 fold
- Fold more potent than compound 6 in the displacement of [3H]nicotine [4]: 17 fold

Compound: FCc1cc(OC[C@@H]2CCN2)on1 [Compound 39, 5-[(2(S)-Azetidinyl)methoxy]-3-(fluoromethyl)isoxazole Trifluoroacetate]
- Activity at the α1β1γδ-nAChR (α1β1γδ-nAChR): little activity; also recorded: inactive

Compound: CN[C@H]1CC[C@@H](c2ccc(Cl)c(Cl)c2)c2ccccc21 [sertraline, reference compound]
- Immobility in the forced swim test ([2]; positive control, 10 mg/kg (10 or 20 mg/kg in method), ip or orally): expected decrease in immobility
